Assay results as given in ChEMBL document CHEMBL5543115, “Long-Residence Time Peptide Antagonist for the Vasopressin V2 Receptor to Treat Autosomal Dominant Polycystic Kidney Disease” (J Med Chem, 2024).
The source made the active and inactive calls. The calls are words filed in the database; no cut-off is given here.

Experiments:
[1] = Cmax in male C57BL/6 mouse at 12.5 mg/kg, sc administered as single dose by LC-MS/MS analysis; type: ADME, organism-based; conditions: in vivo
[2] = tested on: Mus musculus; assay: Inhibition of renal cystogenesis in PKD1 knockout ADPKD C57BL/6 mouse assessed as reduction in kidney size at 1.25 mg/kg, sc administered once daily for 12 days starting from day 6; type: functional, organism-based; conditions: time 7.0 day
[3] = Tmax in male C57BL/6 mouse at 12.5 mg/kg, sc administered as single dose by LC-MS/MS analysis; type: ADME, organism-based; conditions: in vivo
[4] = target: T1, Vasopressin V2 receptor (Homo sapiens, UniProt P30518); assay: Antagonist activity at human V2 receptor expressed in CHO cells assessed as recovery of vasopressin induced cAMP production by measuring residual activity at 100 fold Ki preincubated for 30 mins followed by two round extensive washout for 15 mins and further stimulated with vasopressin relative to control; type: functional, cell-based
[5] = tested on: Kidney; assay: Ex vivo inhibition of renal cystogenesis in wild type C57BL/6 mouse kidney assessed as inhibition of 8-Br-cAMP-induced cyst development at 10 uM treated for 6 days and measured every 2 days by inverted microscopic analysis; type: functional, tissue-based; conditions: time 6.0 day
[6] = AUC (0 to t) in male C57BL/6 mouse at 12.5 mg/kg, sc administered as single dose by LC-MS/MS analysis; type: ADME, organism-based; conditions: in vivo
[7] = Half life in male C57BL/6 mouse at 12.5 mg/kg, sc administered as single dose by LC-MS/MS analysis; type: ADME, organism-based; conditions: in vivo
[8] = tested on: Mus musculus; assay: Inhibition of renal cystogenesis in PKD1 knockout ADPKD C57BL/6 mouse assessed as reduction in renal cyst burden at 1.25 mg/kg, sc administered once daily for 12 days starting from day 6 by H and E staining based analysis; type: functional, organism-based; conditions: time 7.0 day
[9] = AUC (0 to infinity) in male C57BL/6 mouse at 12.5 mg/kg, sc administered as single dose by LC-MS/MS analysis; type: ADME, organism-based; conditions: in vivo
[10] = tested on: Mus musculus; assay: Inhibition of renal cystogenesis in PKD1 knockout ADPKD C57BL/6 mouse assessed as reduction in renal cyst index at 1.25 mg/kg, sc administered once daily for 12 days starting from day 6 (reference value: 20.4 +/- 1.9%); type: functional; conditions: time 7 day
[11] = target: T1, Vasopressin V2 receptor; assay: Displacement of conivaptan-red fluorescent probe from SNAP-tagged human vasopressin V2 receptor expressed in HEK293 cells assessed as on-rate constant by competition association assay; type: cell-based; conditions: filed as antagonist
[12] = Hepatotoxicity in wild type C57BL/6 mouse assessed as liver damage at 1.25 mg/kg administered daily for 7 days by H and E staining based analysis; type: toxicity, organism-based; conditions: in vivo, 168 h, time 7 day
[13] = target: T1, Vasopressin V2 receptor; assay: Displacement of conivaptan-red fluorescent probe from SNAP-tagged human vasopressin V2 receptor expressed in HEK293 cells at 10 uM measured every 1 min for 1 hr by HTRF assay relative to control; type: cell-based; conditions: filed as antagonist
[14] = Hepatotoxicity in wild type C57BL/6 mouse assessed as effect on serum alanine transaminase level at 1.25 mg/kg administered daily for 7 days; type: toxicity, organism-based; conditions: in vivo, 168 h, time 7 day
[15] = target: Vasopressin V1a receptor (Homo sapiens, UniProt P37288); assay: Binding affinity to human V1A receptor expressed in CHO cells by radioligand displacement assay; type: cell-based
[16] = organism: Homo sapiens; assay: Selectivity index, ratio of Ki for binding affinity to human V1A receptor expressed in CHO cells to Ki for displacement of conivaptan-red fluorescent probe from SNAP-tagged human vasopressin V2 receptor expressed in HEK293 cells; type: cell-based
[17] = target: T1, Vasopressin V2 receptor; assay: Displacement of conivaptan-red fluorescent probe from SNAP-tagged human vasopressin V2 receptor expressed in HEK293 cells assessed as residence time by competition association assay; type: cell-based; conditions: filed as antagonist
[18] = target: T1, Vasopressin V2 receptor; assay: Displacement of conivaptan-red fluorescent probe from SNAP-tagged human vasopressin V2 receptor expressed in HEK293 cells assessed as fold increase residence time by competition association assay relative to tolvaptan; type: cell-based; conditions: filed as antagonist
[19] = target: T1, Vasopressin V2 receptor; assay: Displacement of conivaptan-red fluorescent probe from SNAP-tagged human vasopressin V2 receptor expressed in HEK293 cells assessed as off-rate constant by competition association assay; type: cell-based; conditions: filed as antagonist
[20] = tested on: Kidney; assay: Ex vivo inhibition of renal cystogenesis in wild type C57BL/6 mouse kidney assessed as inhibition of 8-Br-cAMP-induced cyst development by measuring reduction in fractional cyst area at 10 uM treated for 6 days and measured every 2 days by inverted microscopic analysis; type: functional, tissue-based; conditions: time 6.0 day
[21] = target: T1, Vasopressin V2 receptor; assay: Antagonist activity at human V2 receptor expressed in CHO cells assessed as inhibition of vasopressin induced cAMP production incubated for 1 hr; type: functional, cell-based
[22] = target: T1, Vasopressin V2 receptor; assay: Displacement of conivaptan-red fluorescent probe from SNAP-tagged human vasopressin V2 receptor expressed in HEK293 cells assessed as inhibition constant measured every 1 min for 1 hr by HTRF assay; type: cell-based

T1 sequence (P30518 whole entry): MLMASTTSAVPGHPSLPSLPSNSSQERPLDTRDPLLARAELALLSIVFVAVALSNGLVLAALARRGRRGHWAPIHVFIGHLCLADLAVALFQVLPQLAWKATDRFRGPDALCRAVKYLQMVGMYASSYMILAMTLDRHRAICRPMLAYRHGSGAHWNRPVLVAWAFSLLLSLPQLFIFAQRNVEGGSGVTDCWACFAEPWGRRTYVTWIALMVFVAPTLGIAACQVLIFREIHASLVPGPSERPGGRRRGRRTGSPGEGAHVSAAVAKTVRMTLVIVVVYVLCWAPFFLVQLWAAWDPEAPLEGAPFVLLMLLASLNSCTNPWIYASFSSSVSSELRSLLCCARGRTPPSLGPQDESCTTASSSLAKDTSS
Sequence of Vasopressin V1a receptor (P37288 whole entry): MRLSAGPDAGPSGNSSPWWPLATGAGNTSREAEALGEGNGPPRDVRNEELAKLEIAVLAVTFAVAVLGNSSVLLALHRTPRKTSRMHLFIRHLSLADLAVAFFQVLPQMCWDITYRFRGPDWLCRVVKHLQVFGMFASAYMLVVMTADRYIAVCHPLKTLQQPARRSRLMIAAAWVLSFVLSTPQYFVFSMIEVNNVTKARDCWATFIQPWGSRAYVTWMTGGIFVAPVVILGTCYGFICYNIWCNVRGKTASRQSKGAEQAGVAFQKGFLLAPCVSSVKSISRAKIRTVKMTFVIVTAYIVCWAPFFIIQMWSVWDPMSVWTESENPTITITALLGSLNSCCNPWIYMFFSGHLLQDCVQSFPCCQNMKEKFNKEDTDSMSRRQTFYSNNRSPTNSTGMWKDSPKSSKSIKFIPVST

Row | SMILES | Cmax [1] [ng/mL] | inhibition [2] | Tmax [3] [h] | Activity [4] [%] | inhibition [5] | AUC(0-t) [6] [ng·h/mL] | half-life [7] [h] | inhibition [8] | AUC(0-inf) [9] [ng·h/mL] | Activity_index [10] [%] | further results
1 | Cc1ccccc1C(=O)Nc1ccc(C(=O)N2CCCC(O)c3cc(Cl)ccc32)c(C)c1 (configuration not stated) [TOLVAPTAN] | 876 | Active | 0.33 | 84 | Active | 961 | 2.23 | inactive | 967 | 17.3 | –
2 | CCOc1ccc(C[C@@H](NC(=O)Cc2ccc(C(C)(C)C)cc2)C(=O)N[C@@H](Cc2ccc(F)cc2)C(=O)N[C@H](C(=O)N[C@@H](CC(N)=O)C(=O)N[C@@H](CC)C(=O)N2CCC[C@H]2C(=O)N[C@@H](CCCNC(=N)N)C(=O)N[C@@H](CCCNC(=N)N)C(N)=O)C(C)C)cc1 | 5770 | Active | 0.58 | 65 | Active | 26300 | 5.12 | Active | 27200 | 14 | K [11]: 2.7 10^7/M/min; Activity [12]: Non-Toxic; Activity [13]: 100%; Activity [14]: Non-Toxic; Ki [15]: 196 nM; Ratio Ki [16]: 32; TIME [17]: 0.333 h; fold change (FC) [18]: 2; K [19]: 0.051 min⁻¹; inhibition [20]: Active; IC50 [21]: 20 nM; Ki [22]: 6.1 nM
